This is an account of results in US20230293629A1, “METHODS FOR ATTENUATING RELEASE OF INFLAMMATORY MEDIATORS AND PEPTIDES USEFUL THEREIN” (BIOMARCK PHARMACEUTICALS LTD., priority 2006, published 2023).

In one data set the test system is human neutrophils. Put plainly: PMA-stimulated MPO release from isolated human neutrophils (TMB assay). The class given is cell-based. Particulars: 100 μM test peptide, two hour incubation with 100 nM PMA; human neutrophils. From the text: Human neutrophil isolation—These studies were approved by the human studies Institutional Review Board (IRB). Human neutrophils were isolated as previously described (see Takashi S, OkuboY, Horie S. Contribution of CD54 to human eosinophil and neutrophil superoxide production. J Appl Physiol 2001; 91:613-622) with slight modifications. Briefly, heparinized venous blood was obtained from normal healthy volunteers, diluted with RPMI-1640 (Cellgro; Mediatech, Inc., Herndon, VA) at a ratio of 1:1, layered onto a Histopaque (density, 1.077 g/ml; Sigma-Aldrich Co., St. Louis, MO) and centrifuged at 400 g for 20 min at 4° C. The supernatant and mononuclear cells at the interface were carefully removed, and erythrocytes in the sediment were lysed in chilled distilled water. Isolated granulocytes were washed twice with Hanks' balanced salts solution (HBSS) and resuspended in HBSS on ice.
Measurement of released neutrophil MPO activity—For measurement of MPO release, purified human neutrophils suspended in HBSS were aliquoted at 4×10^6 cells/ml in 15 ml tubes and preincubated with either 50 or 100 μM of MANS, RNS, or one of the peptides of invention for 10 min at 37° C. The cells then were stimulated with 100 nM phorbol 12-myristate 13-acetate (PMA) for up to 3 hrs. A control reference (PMA control reference) was established using purified human neutrophils suspended in HBSS aliquoted at 4×10^6 cells/ml in 15 mL tubes and stimulated with 100 nM phorbol 12-myristate 13-acetate (PMA) in the absence of a test peptide for the same time periods. The reaction was terminated by placing the tubes on ice and centrifugation at 400 g for 5 min at 4° C.
MPO activity in the cell supernatant was assayed using tetramethylbenzidine (TMB) based on a previously established technique (Abdel-Latif D, Steward M, Macdonald D L, Francis G A., Dinauer M C, Lacy P. Rac2 is critical for neutrophil primary granule exocytosis. Blood 2004; 104:832-839). Briefly, 100 μL of TMB substrate solution was added to 50 μL of cell supernatants or standard human MPO (EMD Biosciences, Inc., San Diego, CA) in a 96-well microplate followed by incubation at room temperature for 15 min. The reaction was terminated by addition of 50 μL of 1M […] and absorbance was read at 450 nm in a spectrophotometric microplate reader (VERSA max, Molecular Devices, Sunnyvale, CA).
The data presented in the table below represents 100 μM concentration of test peptides and a two hour incubation with 100 nM PMA.

Another data set deals with HL-60 clone 15 cells. Put plainly: PMA-stimulated EPO release from HL-60 clone 15 cells. The class given is cell-based, human. Particulars: 50 μM test peptide, two hour incubation with 100 nM PMA; HL-60 clone 15 cells. On the procedure:
(§1) Three types of human leukocyte cell lines, specifically the promyelocytic cell line HL-60 clone 15, the monocytic cell line U937, and the lymphocyte natural killer cell line NK-92 were purchased from American Type Culture Collection (ATCC; Rockville, MD). HL-60 clone 15 cells (ATCC CRL-1964) were maintained in medium consisting of RPMI 1640 with L-glutamine supplemented with 10% heat-inactivated fetal bovine serum (Gibco; Invitrogen Co., Carlsbad, CA), 50 IU/ml penicillin, 50 μg/mL streptomycin, and 25 mM HEPES buffer, pH 7.8, at 37° C. in an atmosphere containing 5% CO2. Final differentiation to an eosinophil-like phenotype was initiated by culturing cells at 5×10^5 cells/ml in the above medium containing 0.5 mM butyric acid (Sigma-Aldrich Co.) for 5 days as previously described (Tiffany H L, Li F, Rosenberg H F. Hyperglycosylation of eosinophil ribonucleases in a promyelocytic leukemia cell line and in differentiated peripheral blood progenitor cells. J Leukoc Biol 1995; 58:49-54; Tiffany H L, Alkhatib G, Combadiere C, Berger E A, Murphy P M. CC chemokine receptors 1 and 3 are differentially regulated by IL-5 during maturation of eosinophilic HL-60 cells. J Immunol 1998; 160:1385-1392). U937 cells (ATCC CRL-1593.2) were grown at 37° C. in an atmosphere of 5% CO2 in complete medium consisting of RPMI 1640 with L-glutamine supplemented with 10% FBS, 50 IU/ml penicillin, and 50 μg/mL streptomycin. NK-92 cells (ATCC CRL-2407) were maintained in alpha-MEM medium (Sigma-Aldrich Co.) supplemented with 20% FBS, 100 U/ml of interleukin-2 (IL-2) (Chemicon International, Inc., Temecula, CA), 5×10^−5 M of 2-mercaptoethanol, 50 IU/mL penicillin, and 50 μg/ml streptomycin at 37° C. in an atmosphere containing 5% CO2. Cell morphology was judged by assessment of Wright-Giemsa-stained cells. Viability of cells harvested for experiments was assessed by trypan blue exclusion and populations of cells with viability >95% were used.
(§2) HL-60 clone 15, U937, and NK-92 cells were washed and resuspended at 2.5×10^6 cells/ml in phenol red-free RPMI-1640 (Cellgro; Mediatech, Inc.) for all degranulation assays. Aliquots of cells in 15 ml tubes were preincubated with indicated concentrations of MANS, RNS, or a test peptide for 10 min at 37° C. The cells then were stimulated with PMA for up to 2 hr. A control reference (PMA control reference) was established for each cell type using HL-60 clone 15, U937, and NK-92 cells, respectively, which were washed and resuspended at 2.5×10^6 cells/ml in phenol red-free RPMI-1640 and stimulated with PMA but in the absence of MANS, RNS, or a test peptide for the same time periods. The reaction was terminated by placing tubes on ice and centrifuging cells at 400 g for 5 min at 4° C.
(§3) For measurements of released MPO from neutrophils and released lysozyme from U937 cells, we were able to quantify secretion by using as standards human MPO and egg white […], respectively. For released EPO from HL-60 clone 15 cells and for released granzyme from NK-92 cells, no standards were available to use for quantification. […] To measure intracellular EPO in HL-60 clone 15 cells and intracellular granzyme in NK-92 cells, appropriate aliquots of 0.1% triton X-100-lysed cells were taken for quantification of intracellular granule proteins as described below. All treatments were expressed as percentage of control to minimize variability between cultures.
EPO activity released by HL-60 clone 15 cells was assayed using TMB according to a previously established technique (Lacy P, Mahmudi-Azer S, Bablitz B, Hagen S C, Velazquez J R, Man S F, Moqbel R. Rapid mobilization of intracellularly stored RANTES in response to interferon-gamma in human eosinophils. Blood 1999; 94:23-32). Thus, 100 μL of TMB substrate solution was added to 50 μL=microliters) of sample in a 96-well microplate and incubated at room temperature for 15 min (min=minutes). […]

The subject of a further data set is U937 cells. Kind of data set: PMA-stimulated lysozyme secretion by U937 cells. The class given is cell-based, human. Particulars: 50 μM test peptide, two hour incubation with 100 nM PMA; U937 cells. As for the experimental part: as §1, §2, §3
Lysozyme secreted by U937 cells was measured using a spectrophotometric assay as described previously (Balboa M A, Saez Y, Balsinde J. Calcium-independent phospholipase A2 is required for lysozyme secretion in U937 promonocytes. J Immunol 2003; 170:5276-5280) with slight modification. Thus, 100 μL of sample was mixed with 100 μL of a Micrococcus lysodeikticus (Sigma-Aldrich Co.) suspension (0.3 mg/ml in 0.1 M sodium phosphate buffer, pH 7.0) in a 96-well microplate. The decrease in absorbance at 450 nm was measured at room temperature. […]

Data set [1] in a line: Qualitative solubility of peptides in 0.5 N saline, pH 6.5.
For data set [2], the system named is MARCKS phosphorylation in NHBE cells. Kind of data set: MARCKS phosphorylation in NHBE cells, radiolabeled immunoprecipitation assay. The class given is cell-based, human. Particulars: 500 nM calphostin C + 100 nM PMA. On the procedure: Radiolabeled Immunoprecipitation Assay—When labeling with [^32P]phosphate, cells were preincubated for 2 h in phosphate-free Dulbecco's modified Eagle's medium containing 0.2% bovine serum albumin and then labeled with 0.1 mCi/ml [^32P]orthophosphate (9000 Ci/mmol, PerkinElmer Life Sciences) for 2 h. For labeling with [^3H]myristic acid or 3H-amino acids, cells were incubated overnight in medium containing 50 μCi/ml [^3H]myristic acid (49 Ci/mmol, PerkinElmer Life Sciences) or 0.2 mCi/ml [^3H]leucine (159 Ci/mmol, PerkinElmer Life Sciences) plus 0.4 mCi/ml [^3H]proline (100 Ci/mmol, PerkinElmer Life Sciences). Following labeling, cells were exposed to stimulatory reagents for 5 min. When an inhibitor was used, cells were preincubated with the inhibitor for 15 min prior to stimulation. At the end of the treatments, cells were lysed in a buffer containing 50 mM Tris-HCl (pH 7.5), 150 mM NaCl, 1 mM EDTA, 10% glycerol, 1% Nonidet P-40, 1 mM phenylmethylsulfonyl fluoride, 1 mM benzamidine, 10 μg/ml pepstatin A, and 10 μg/ml leupeptin. Trichloroacetic acid precipitation and scintillation counting may determine the radiolabeling efficiency in each culture. Immunoprecipitation of MARCKS protein was carried out according to the method of Spizz and Blackshear using cell lysates containing equal counts/min. Spizz et al., J. Biol. Chem. 271, 553-562 (1996). Precipitated proteins were resolved by 8% SDS-polyacrylamide gel electrophoresis and visualized by autoradiography. Anti-human MARCKS antibody (2F12) and nonimmune control antibody (6F6) were used in this assay.
To assess MARCKS or MARCKS-associated protein complexes in different subcellular fractions, radiolabeled and treated cells were scraped into a homogenization buffer (50 mM Tris-HCl (pH 7.5), 10 mM NaCl, 1 mM EDTA, 1 mM phenylmethylsulfonyl fluoride, 1 mM benzamidine, 10 μg/ml pepstatin A, 10 μg/ml leupeptin) and then disrupted by nitrogen cavitation (800 pounds/square inch for 20 min at 4° C.). Cell lysates were centrifuged at 600×g for 10 min at 4° C. to remove nuclei and unbroken cells. Post-nuclear supernatants were separated into membrane and cytosol fractions by ultracentrifugation at 400,000×g for 30 min at 4° C. The membrane pellet was solubilized in the lysis buffer by sonication. Immunoprecipitation was then carried out as described above.

Where a SMILES comes first, the peptide text is derived from it. Where no end group is shown, it is not given here. [ ]: non-standard residue; d: D form. The star is where a group is joined. Myristoyl = CCCCCCCCCCCCCC(=O)* Some results are limits rather than exact numbers.

On to `CC(=O)NCC(=O)N[C@H](C)C(=O)N[C@H](CCC(N)=O)C(=O)N[C@H](Cc1ccccc1)C(=O)N[C@H](CO)C(=O)N[C@H](CCCCN)C(=O)N[C@@H](C(=O)N[C@H](C)C(=O)N[C@H](C)C(=O)N[C@H](CCCCN)C(=O)O)[C@H](C)O` [Ac-GAQFSKTAAK (all d), GAQFSKTAAK (all d)] (Ac-G[dA][dQ][dF][dS][dK][dT][dA][dA][dK]-OH; C-terminus assumed), for which the “% Inhibition MPO” value in the data set with human neutrophils is 40.0%. The “% Inhibition EPO” value in the data set on HL-60 clone 15 cells is listed as 26.9%. Further, the “% Inhibition Lysozyme” value with U937 cells worked out at 8.9%. Further, the solubility (as a rule, the dissolved amount per volume that the medium holds) in data set [1] was above 100 mg/mL.
The like results for `CCCCCCCCCCCCCC(=O)NCC(=O)N[C@@H](C)C(=O)N[C@@H](CCC(N)=O)C(=O)N[C@@H](Cc1ccccc1)C(=O)N[C@@H](CO)C(=O)N[C@@H](CCCCN)C(=O)N[C@H](C(=O)N[C@@H](C)C(=O)N[C@@H](C)C(=O)N[C@@H](CCCCN)C(=O)NCC(=O)N[C@@H](CCC(=O)O)C(=O)O)[C@@H](C)O` [MA-GAQFSKTAAKGE, GAQFSKTAAKGE] (Myristoyl-GAQFSKTAAKGE-OH; C-terminus assumed) were, in that order, 43.2%, 25.2%, 85.2% and above 2 mg/mL.
Take `CCCCCCCCCCCCCC(=O)NCC(=O)N[C@@H](C)C(=O)N[C@@H](CCC(N)=O)C(=O)N[C@@H](Cc1ccccc1)C(=O)N[C@@H](CO)C(=O)N[C@@H](CCCCN)C(=O)N[C@H](C(=O)N[C@@H](CCCCN)C(=O)N[C@@H](C)C(=O)N[C@@H](CCCCN)C(=O)NCC(=O)N[C@@H](CCC(=O)O)C(=O)O)[C@@H](C)O` [MA-GAQFSKTKAKGE, GAQFSKTKAKGE] (Myristoyl-GAQFSKTKAKGE-OH; C-terminus assumed): the “% Inhibition MPO” value with human neutrophils was determined as 65.2%. The compound further had a solubility in data set [1] above 3 mg/mL.
Regarding “Ac-GAQFSKTAAKGE-NH2 [Ac-GAQFSKTAAKGE-NH2, GAQFSKTAAKGE]”, the “% Inhibition MPO” value in the data set on human neutrophils is 26.5%. Further, the “% Inhibition EPO” value with HL-60 clone 15 cells is reported as 24.7%. Further, the “% Inhibition Lysozyme” value with U937 cells is reported as 38.6%. For the same compound, the solubility in data set [1] was above 60 mg/mL.
Turning to “H-GAQFSKTAAKGE [peptide 79, GAQFSKTAAKGE]”, the “% Inhibition MPO” value in the data set with human neutrophils is on record as 27.9%.
As for calphostin C, the “effect on PMA-induced MARCKS phosphorylation” value in data set [2] is “attenuated”.
